From US9938301B2, “Dihydropyrimido fused ring derivative as HBV inhibitor” (QILU PHARMACEUTICAL CO., LTD., priority 2014, dated 2018)
Where two headings read alike, the source gives them in different places.

System: HBV DNA in HepG2.2.15 cells
Assay: HBV in vitro dot-blot hybridization test
Type: cell-based, Hepatitis B virus
Protocol: • 1. Purpose of the test: • The content of HBV DNA in HepG2.2.15 cells was detected by dot-blot hybridization test to evaluate an inhibitory action of the compound on HBV with an EC50 value as an indicator. • 2. Experimental materials: • 2.1 Cell lines: HepG2.2.15 Cells • HepG2.2.15 cell culture media (DMEM/F12, Invitrogen-11330057; 10% serum Invitrogen-10099141; 100 units/mL Penicillin and 10 μg/mL Streptomycin, Invitrogen-15140122; 1% non-essential amino acid, Invitrogen-11140076; 2 mM L-GLUTAMINE, Invitrogen-25030081; 300 µg/ml Geneticin, Invitrogen-10131027 • 2.2 Reagents: • Trypsin (I Invitrogen-25300062) • DPBS (Hyclone-SH30028.01B) • DMSO (Sigma-D2650-100ML) • 96-well cell-culture plate (Corning-3599) • CO2 incubator (HERA-CELL-240) • 20×SSC (Bio-serve Co. Ltd) • Tris-HCl (Aldirch-154563-1KG) • NaOH (Sinopharm 10019718) • NaCl (Sinopharm 10019308) • Hybridization solution (Major BioTech Co. Ltd, IMMUNE GOLD-HYB-500) • DIG Wash and Block Buffer set (Roche-11585762001) • Anti-digoxigenin-AP, Fab fragments from sheep (Roche-11093274910) • 2.3 Materials and Instruments: • Positively-Charged Nylon Membrane (GE-RPN2250B) • Transfer Membrane Instrument (Bio-Rad, 170-6545) • Hybridization Oven (HL-2000 Hybrilinker) • 3. Testing steps and Methods: • 3.1 HepG2.2.15 cells (4×10^4 cells/well) were planted into a 96-well plate, and at 37° C., 5% CO2 cultured overnight. • 3.2 On Day 2, the compounds were diluted in totally 6 concentrations with a dilution gradient of five times. The compounds at different concentrations were added into the culture wells in duplicate. The final concentration of DMSO in the culture media was 1%. 1 μM GLS4 was used as 100% inhibition control; 1% DMSO as 0% inhibition control. • 3.3 On Day 5, replacing with the fresh culture media containing the compound was performed. • 3.4 On Day 8 and Day 9, the culture media in the culture wells was removed, and the cells were harvested for dot-blot hybridization. • The lysate was added into a culture well, and at 37° C. incubating for half an hour to disintegrate cells; the supernatant was obtained by centrifugation and transferred into a new microplate; a denaturation solution was added, after sufficient mixing the denatured sample was transferred and imprinted onto a Nylon membrane, the nucleic acid was fixed onto the membrane by UV cross-linking. • Pre-hybridization: the membrane was incubated at 60° C. in a hybridization solution for 1 hour. • Hybridization: heating the denatured digoxin-labelled HBV DNA probe and incubating at 60° C. overnight. • Membrane Washing: performing high strigency washing twice, low strigency washing for 3 times. • Blocking: incubating the membrane at room temperature in a blocking solution for 30-60 minutes. • Hybridization: diluting the Antibody Solution with the blocking solution, in which the membrane was placed and incubated at room temperature for 30-60 minutes. • Developing: washing the membrane in a Detection Buffer for 5 minutes, followed by adding a developing solution, pressing and exposing. • The photos was saved in tiff format, and a gray value of the dot was quantified with quantity one software. • 3.5 Data Analysis: • 3.5.1 The inhibition percentage was calculated: % Inh.=[1−(sample dot gray value−1 μM GLS4 dot gray value 1)/(DMSO control dot gray value−1 μM GLS4 dot gray value 1)]×100. • 3.5.2 Calculating EC50: the concentration of the compound for 50% inhibition of HBV (EC50) was calculated by using GraphPad Prism Software. • 4.

[1] = Hepatitis B virus, HepG2.2.15, dot-blot hybridization assay, read-out: Concentration for 50% inhibition of HBV (EC50)value
[2] = Hepatitis B virus, HepG2.2.15, summary list of target compounds, Examples 1-165 (same as Table 2), read-out: BIOACTIVITY (inhibitory actions on HBV DNA, EC50)
[3] = summary list of target compounds, Examples 1-165 (same as Table 2), read-out: BIOACTIVITY (inhibitory actions on HBV DNA, EC50)
[4] = dot-blot hybridization assay, read-out: Concentration for 50% inhibition of HBV (EC50)value

CCOC(=O)C1=C2CC(NS(=O)(=O)C(F)(F)F)CN2C(c2nccs2)=N[C@H]1c1ccc(F)cc1Br (stereo partly drawn) [Example 63]
EC50 [1]: 100 to 500 nM
EC50 [2]: 100 to 500 nM

CCOC(=O)C1=C2C[C@H](NS(=O)(=O)C(F)(F)F)CN2C(c2nccs2)=N[C@H]1c1ccc(F)cc1Cl [Example 153]
EC50 [1]: < 100 nM
EC50 [2]: < 100 nM

CCOC(=O)CN(C)C[C@H]1CC2=C(C(=O)OCC)[C@H](c3ccc(F)cc3Br)N=C(c3nccs3)N2C1 [Example 20]
EC50 [1]: 1000 to 5000 nM
EC50 [2]: 1000 to 5000 nM

CCOC(=O)C1=C2C[C@H](N)CN2C(c2nccs2)=N[C@H]1c1ccc(F)cc1Br [Example 41]
EC50 [1]: 1000 to 5000 nM
EC50 [2]: 1000 to 5000 nM

CCOC(=O)C1=C2CN(C(=O)C(C)C)CCN2C(c2nccs2)=N[C@H]1c1ccc(F)cc1Br [Example 92]
EC50 [1]: < 100 nM
EC50 [2]: < 100 nM

CCOC(=O)C1=C2C[C@H](NS(=O)(=O)C(F)F)CN2C(c2nccs2)=N[C@H]1c1ccc(F)cc1Cl [Example 128]
EC50 [1]: < 100 nM
EC50 [2]: < 100 nM

CCOC(=O)C1=C2[C@@H](NS(C)(=O)=O)CCN2C(c2nccs2)=N[C@H]1c1ccc(F)cc1Br [Example 146]
EC50 [1]: 1000 to 5000 nM
EC50 [2]: 1000 to 5000 nM

CCOC(=O)C1=C2C[C@@H](N3CCOC3=O)CN2C(c2nccs2)=N[C@H]1c1ccc(F)cc1Br [Example 65]
EC50 [1]: 100 to 500 nM
EC50 [2]: 100 to 500 nM

CCOC(=O)C1=C2COCCN2C(c2nccs2)=NC1c1ccc(F)cc1Br (racemic) [Example 110]
EC50 [1]: 1000 to 5000 nM
EC50 [2]: 1000 to 5000 nM

CCOC(=O)C1=C2C[C@@H](CN3CCOCC3)CN2C(c2nccs2)=N[C@H]1c1ccc(F)cc1Br [Example 16]
EC50 [1]: 1000 to 5000 nM
EC50 [2]: 1000 to 5000 nM

CCOC(=O)C1=C2CN(C(=O)NC)CCN2C(c2nccs2)=N[C@H]1c1ccc(F)cc1Br [Example 88]
EC50 [1]: 500 to 1000 nM
EC50 [2]: 500 to 1000 nM

CCOC(=O)C1=C2C[C@H](O)CN2C(c2nccs2)=N[C@@H]1c1ccc(F)cc1Cl [Example 35]
EC50 [1]: 1000 to 5000 nM
EC50 [2]: 1000 to 5000 nM

CCOC(=O)C1=C2CCCN2C(c2nccs2)=NC1c1cccc(F)c1Cl (racemic) [Example 70]
EC50 [1]: 100 to 500 nM
EC50 [2]: 100 to 500 nM

CCOC(=O)C1=C2CC(NS(C)(=O)=O)CN2C(c2nccs2)=N[C@H]1c1ccc(F)cc1Br (mixture of isomers) [Example 57]
EC50 [1]: < 100 nM
EC50 [2]: < 100 nM

CCOC(=O)C1=C2C[C@H](NS(=O)(=O)C3COC3)CN2C(c2nccs2)=N[C@H]1c1ccc(F)cc1Cl [Example 144]
EC50 [1]: < 100 nM
EC50 [2]: < 100 nM

CCOC(=O)C1=C2CN(C#N)CCN2C(c2nccs2)=N[C@H]1c1ccc(F)cc1Br [Example 101]
EC50 [1]: 500 to 1000 nM
EC50 [2]: 500 to 1000 nM

CCOC(=O)C1=C2C[C@@H](C(N)=O)CN2C(c2nccs2)=NC1c1ccc(F)cc1Br (mixture of isomers) [Example 29]
EC50 [3]: 100 to 500 nM

O=C(OCC(F)F)C1=C2CCCN2C(c2nccs2)=NC1c1ccc(F)cc1Br (racemic) [Example 81]
EC50 [1]: 1000 to 5000 nM
EC50 [2]: 1000 to 5000 nM

CCOC(=O)C1=C2C[C@@H](CO)CN2C(c2nccs2)=N[C@H]1c1ccc(F)cc1Br [Example 6]
EC50 [1]: < 100 nM
EC50 [2]: < 100 nM

CCOC(=O)C1=C2C[C@H](N3CCOCC3)CN2C(c2nccs2)=N[C@H]1c1ccc(F)cc1Cl [Example 130]
EC50 [1]: < 100 nM
EC50 [2]: < 100 nM

COC(=O)C1=C2C[C@H](NS(=O)(=O)C(F)(F)F)CN2C(c2nccs2)=N[C@H]1c1ccc(F)cc1Cl [Example 155]
EC50 [1]: < 100 nM
EC50 [2]: < 100 nM

CCOC(=O)C1=C2CCCN2C(c2ccsn2)=NC1c1ccc(F)cc1Cl (racemic) [Example 77]
EC50 [1]: 1000 to 5000 nM
EC50 [2]: 1000 to 5000 nM

CCOC(=O)C1=C2CCCN2C(c2nccs2)=NC1c1ccc(F)cc1 (racemic) [Example 73]
EC50 [1]: 1000 to 5000 nM
EC50 [2]: 1000 to 5000 nM

CCOC(=O)C1=C2C[C@@H](CNS(=O)(=O)C3CC3)CN2C(c2nccs2)=N[C@H]1c1ccc(F)cc1Br [Example 122]
EC50 [1]: 1000 to 5000 nM
EC50 [2]: 1000 to 5000 nM

CCOC(=O)C1=C2C[C@H](c3nnn[nH]3)CN2C(c2nccs2)=N[C@H]1c1ccc(F)cc1Cl [Example 32]
EC50 [1]: 1000 to 5000 nM
EC50 [2]: 1000 to 5000 nM

CCOC(=O)C1=C2CN(CC(=O)OC)C(=O)CN2C(c2nccs2)=N[C@H]1c1ccc(F)cc1Br [Example 106]
EC50 [1]: 1000 to 5000 nM
EC50 [2]: 1000 to 5000 nM

CCOC(=O)C1=C2C[C@@H](CC#N)CN2C(c2nccs2)=NC1c1ccc(F)cc1Br (mixture of isomers) [Example 11]
EC50 [4]: 1000 to 5000 nM
EC50 [3]: 1000 to 5000 nM

CCOC(=O)C1=C2C[C@H](NC(=O)NC)CN2C(c2nccs2)=N[C@H]1c1ccc(F)cc1Br [Example 53]
EC50 [1]: < 100 nM
EC50 [2]: < 100 nM

CCOC(=O)C1=C2C[C@H](NS(C)(=O)=O)CN2C(c2nncs2)=N[C@H]1c1ccc(F)cc1Cl [Example 154]
EC50 [1]: 100 to 500 nM
EC50 [2]: 100 to 500 nM

CCOC(=O)C1=C2CC(NC(C)=O)CN2C(c2nccs2)=N[C@H]1c1ccc(F)cc1Br (mixture of isomers) [Example 48]
EC50 [1]: 100 to 500 nM
EC50 [2]: 100 to 500 nM

CCOC(=O)C1=C2C[C@H](CNC(C)=O)CN2C(c2nccs2)=N[C@H]1c1ccc(F)cc1Br [Example 120]
EC50 [1]: < 100 nM
EC50 [2]: < 100 nM

CCOC(=O)C1=C2C[C@H](NS(C)(=O)=O)CN2C(c2nccs2)=N[C@H]1c1ccc(F)cc1Br [Example 59]
EC50 [1]: < 100 nM
EC50 [2]: < 100 nM

CCOC(=O)C1=C2C[C@@H](NS(=O)(=O)C(F)F)CN2C(c2nccs2)=N[C@H]1c1ccc(F)cc1Br [Example 123]
EC50 [1]: < 100 nM
EC50 [2]: < 100 nM

CCOC(=O)C1=C2C[C@H](N3CCOC3=O)CN2C(c2nccs2)=N[C@H]1c1ccc(F)cc1Br [Example 66]
EC50 [1]: 100 to 500 nM
EC50 [2]: 100 to 500 nM

CCOC(=O)C1=C2CN(C)S(=O)(=O)CN2C(c2nccs2)=N[C@H]1c1ccc(F)cc1Br [Example 136]
EC50 [1]: 500 to 1000 nM
EC50 [2]: 500 to 1000 nM

CCOC(=O)C1=C2CC(NC(=O)OC)CN2C(c2nccs2)=N[C@H]1c1ccc(F)cc1Br (mixture of isomers) [Example 42]
EC50 [1]: < 100 nM
EC50 [2]: < 100 nM

CCOC(=O)C1=C2C[C@H](C(N)=O)CN2C(c2nccs2)=N[C@H]1c1ccc(F)cc1Cl [Example 31]
EC50 [1]: 100 to 500 nM
EC50 [2]: 100 to 500 nM

CCOC(=O)C1=C2[C@@H](C(N)=O)CCN2C(c2nccs2)=N[C@H]1c1ccc(F)cc1Cl (racemic) [Example 3]
EC50 [1]: 100 to 500 nM
EC50 [2]: 100 to 500 nM

CCOC(=O)C1=C2CC(NC(=O)OC(C)C)CN2C(c2nccs2)=N[C@H]1c1ccc(F)cc1Br (stereo partly drawn) [Example 46]
EC50 [1]: 100 to 500 nM
EC50 [2]: 100 to 500 nM

CCOC(=O)C1=C2C[C@H](NS(C)(=O)=O)CN2C(c2nccs2)=N[C@H]1c1ccc(Cl)cc1F [Example 150]
EC50 [1]: 100 to 500 nM
EC50 [2]: 100 to 500 nM

CCOC(=O)C1=C2C[C@@H](C#N)CN2C(c2nccs2)=NC1c1ccc(F)cc1Br (mixture of isomers) [Example 26]
EC50 [4]: 500 to 1000 nM
EC50 [3]: 500 to 1000 nM

CCOC(=O)C1=C2CCCN2C(c2nccs2)=N[C@H]1c1ccc(F)cc1Br [Example 5]
EC50 [1]: 100 to 500 nM
EC50 [2]: 100 to 500 nM

CCOC(=O)C1=C2CCCN2C(c2nc(C)cs2)=NC1c1ccc(F)cc1Cl (racemic) [Example 79]
EC50 [1]: 1000 to 5000 nM
EC50 [2]: 1000 to 5000 nM

CCOC(=O)C1=C2CCOC(=O)N2C(c2nccs2)=NC1c1ccc(F)cc1Br (racemic) [Example 107]
EC50 [1]: 100 to 500 nM
EC50 [2]: 100 to 500 nM
